Drawing on patent US11230556B2 (Merck Sharp & Dohme Corp., priority 2016, dated 2022), this text covers EC50 for 29 compounds.

SMILES strings stand for the structures.

By EC50 is commonly meant the concentration at which the effect is half-maximal.

This test concerns the target T1, human M4 muscarinic acetylcholine receptor (Homo sapiens, UniProt P08173).
T1 construct: expressed in transfected cells; host or cells: CHO-K1
T1 sequence (P08173 1-479): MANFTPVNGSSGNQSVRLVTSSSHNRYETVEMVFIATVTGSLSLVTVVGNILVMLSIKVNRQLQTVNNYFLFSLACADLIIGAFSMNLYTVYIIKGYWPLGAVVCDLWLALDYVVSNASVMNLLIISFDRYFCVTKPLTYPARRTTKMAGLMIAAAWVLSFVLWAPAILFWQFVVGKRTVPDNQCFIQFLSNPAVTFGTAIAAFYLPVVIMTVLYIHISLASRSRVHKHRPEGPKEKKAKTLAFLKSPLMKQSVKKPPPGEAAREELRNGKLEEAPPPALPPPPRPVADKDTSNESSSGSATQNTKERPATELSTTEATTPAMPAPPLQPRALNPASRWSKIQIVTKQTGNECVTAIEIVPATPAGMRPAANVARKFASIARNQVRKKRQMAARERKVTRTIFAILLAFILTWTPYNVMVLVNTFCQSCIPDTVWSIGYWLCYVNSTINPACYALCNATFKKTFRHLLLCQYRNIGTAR
As to the kind of experiment: human FLIPR-based M4 PAM assay (CHO-K1 cells with human M4 receptor and Gαqi5, calcium dye fluorescence, acetylcholine at 20% of maximum response). The test is classed as cell-based. The note with it: inflection point (IP) of 4 parameter logistic dose response curve, human M4 receptor + Gαqi5, FLIPR Tetra. On the procedure:
In a typical experiment the M4 muscarinic acetylcholine receptor modulating activity of the compounds of the present invention was determined in accordance with the following experimental method. CHO-K1 cells stably transfected with human M4 receptor and chimeric G-protein Gαqi5 (Coward P, et al., Analytical Biochemistry, 270:242-248 (1999)) are thawed from liquid N2 storage, resuspended in growth medium, plated in black, clear bottom 384 well plates, and incubated 16-20 hours at 37° C., 5% CO2. On the day of assay, growth medium is removed, the cells are washed 2 times with wash buffer, and cells are incubated in dye loading buffer at 37° C., 5% CO2 for ˜1 hour. Following dye loading the cell plates are placed in a FLIPR Tetra instrument and while monitoring dye fluorescence (excitation […]), 10 uL of test substance at increasing concentrations is added, and fluorescence values are recorded for 4 min. Next, 10 uL of acetylcholine is added (final concentration calculated so as to achieve 20% of the maximum acetycholine response), and the fluorescence reading is continued for 3.5 min. In some cases, a third addition of acetylcholine (final concentration calculated to achieve 70% of the maximal acetylcholine response) is performed. The resulting dose response curves are fit to a 4 parameter logistic equation and the final result is determined as the inflection point (IP) of the curve
CHO-K1 cells stably transfected with human M4 receptor and chimeric G-protein Gαqi5 are thawed from liquid N2 storage, resuspended in growth medium, plated in black, clear bottom 384 well plates, and incubated 16-20 hours at 37° C., 5% CO2.
On the day of assay, growth medium is removed, the cells are washed 2 times with wash buffer, and cells are incubated in dye loading buffer at 37° C., 5% CO2 for ˜1 h. Following dye loading the cell plates are placed in a FLIPR Tetra instrument and while monitoring dye fluorescence ([…]), 10 uL of test substance at increasing concentrations is added, and fluorescence values are recorded for 4 min. Next, 10 uL of acetylcholine is added (final concentration calculated so as to achieve 20% of the maximum acetycholine response), and the fluorescence reading is continued for 3.5 min. In some cases, a third addition of acetylcholine (final concentration calculated to achieve 70% of the maximal acetylcholine response) is performed.
`COc1ccc(OC2CCN(c3nc4nn(C)c(=O)n4cc3C)CC2)cn1` [Example 11, 7-(4-((6-methoxypyridin-3-yl)oxy)piperidin-1-yl)-2,6-dimethyl-[1,2,4]triazolo[4,3-a]pyrimidin-3(2H)-one]: the EC50 worked out at 87 nM. The figure for `Cc1cn2c(=O)n(C)nc2nc1N1CCC(OCC2CCCC2)CC1` [Example 12, 7-(4-(cyclopentylmethoxy)piperidin-1-yl)-2,6-dimethyl-[1,2,4]triazolo[4,3-a]pyrimidin-3(2H)-one] is 718 nM. The figure for `Cc1cn2c(=O)n(CCO)nc2nc1N1CCC(Oc2ccc3c(c2)COC3)CC1` [Example 13, 7-(4-((1,3-Dihydro-2-benzofuran-5-yl)oxy)piperidin-1-yl)-2-(2-hydroxyethyl)-6-methyl-[1,2,4]triazolo[4,3-a]pyrimidin-3(2H)-one] is 47 nM; for `COc1ccc(OC2CCN(c3nc4nn(CCO)c(=O)n4cc3C)CC2)cn1` [Example 14, 2-(2-hydroxyethyl)-7-(4-((6-methoxypyridin-3-yl)oxy)piperidin-1-yl)-6-methyl-[1,2,4]triazolo[4,3-a]pyrimidin-3(2H)-one] it is 69 nM; for `Cc1cn2c(=O)[nH]nc2nc1N1CCC(Oc2ccccc2)CC1` [Example 15, 6-Methyl-7-(4-phenoxypiperidine-1-yl)-[1.2.4]triazolo[4,3-a]pyrimidin-3(2H)-one] it is 55 nM. As to `Cc1cn2c(=O)[nH]nc2nc1N1CCC(Oc2cccc(C#N)c2)CC1` [Example 16, 3-((1-(6-methyl-3-oxo-2,3-dihydro-[1,2,4]triazolo[4,3-a]pyrimidin-7-yl)piperidin-4-yl)oxy)benzonitrile], the concentration giving a half-maximal response (EC50) was 35 nM. The figure for `Cc1cn2c(=O)n(C)nc2nc1N1CCC(Oc2cccc(C#N)c2)CC1` [Example 17, 3-((1-(2,6-dimethyl-3-oxo-2,3-dihydro-[1,2,4]triazolo[4,3-a]pyrimidin-7-yl)piperidin-4-yl)oxy)benzonitrile] is 36 nM; for `Cc1cn2c(=O)[nH]nc2nc1N1CCC(Oc2ccc3c(cnn3C)c2)CC1` [Example 18] it is 338 nM.

Regarding `Cc1cn2c(=O)n(C)nc2nc1N1CCC(Oc2ccccc2)CC1` [Example 19, 2,6-dimethyl-7-(4-phenoxypiperidin-1-yl)-[1,2,4]triazolo[4,3-a]pyrimidin-3(2H)-one], the concentration giving a half-maximal response (EC50) was 54 nM. The figure for `COc1ccc(OC2CCN(c3nc4c(cc3C)COC4=O)CC2)cn1` [Example 20, 2-(4-((6-Methoxypyridin-3-yl)oxy)piperidin-1-yl)-3-methylfuro[3,4-b]pyridin-7(5H)-one] is 151 nM; for `COc1ccc(OC2CCN(c3nc4c(cc3C)C(=O)OC4)CC2)cn1` [Example 21, 2-(4-((6-Methoxypyridin-3-yl)oxy)piperidin-1-yl)-3-methylfuro[3,4-b]pyridin-5(7H)-one] it is 22 nM; for `Cc1cc2c(=O)[nH][nH]c2nc1N1CCC(Oc2cccc(C#N)c2)CC1` [Example 22, 3-((1-(5-methyl-3-oxo 2,3-dihydro-1H-pyrazolo[3,4-b]pyridin-6-yl)piperidin-4-yl)oxy)benzonitrile] it is 57 nM. Consider `COc1ccc(OC2CCN(c3nc4[nH][nH]c(=O)c4cc3C)CC2)cn1` [Example 23, 6-(4-((6-methoxypyridin-3-yl)oxy)piperidin-1-yl)-5-methyl-1,2-dihydro-3H-pyrazolo[3,4-b]pyridin-3-one], for which the EC50 turned out to be 68 nM. Under `Cc1cc2c(=O)[nH][nH]c2nc1N1CCC(Oc2ccc3cn[nH]c3c2)CC1` [Example 24, 6-(4-((1H-indazol-6-yl)oxy)piperidin-1-yl)-5-methyl-1,2-dihydro-3H-pyrazolo[3,4-b]pyridin-3-one] stands 39 nM; under `COc1ccc(OC2CCN(c3nc4c(cc3C)c(=O)[nH]n4C)CC2)cn1` [Example 25, 6-(4-((6-methoxypyridin-3-yl)oxy)piperidin-1-yl)-1,5-dimethyl-1,2-dihydro-3H-pyrazolo[3,4-b]pyridin-3-one], 249 nM. As to `Cc1cc2c(=O)[nH]n(C)c2nc1N1CCC(Oc2cccc(C#N)c2)CC1` [Example 26, 3-((1-(1,5-dimethyl-3-oxo-2,3-dihydro-1H-pyrazolo[3,4-b]pyridin-6-yl)piperidin-4-yl)oxy)benzonitrile], the EC50 is 208 nM. The figure for `Cc1cc2c(=O)[nH]n(C)c2nc1N1CCC(Oc2ccc3cn[nH]c3c2)CC1` [Example 27, 6-(4-((1H-indazol-6-yl)oxy)piperidin-1-yl)-1,5-dimethyl-1,2-dihydro-3H-pyrazolo[3,4-b]pyridin-3-one] is 71 nM; for `COc1ccc(OC2CCN(c3nc4nccn4c(Cl)c3C)CC2)cn1` [Example 28, 5-chloro-7-(4-((6-methoxypyridin-3-yl)oxy)piperidin-1-yl)-6-methylimidazo[1,2-a]pyrimidine] it is 589 nM.

`COc1ccc(OC2CCN(c3nc4c(cc3C)C(=O)OC4(C)C)CC2)cn1` [Example 30, 2-(4-((6-methoxypyridin-3-yl)oxy)piperidin-1-yl)-3,7,7-trimethylfuro[3,4-b]pyridin-5(7H)-one]: the concentration for a half-maximal effect (EC50) came to 856 nM.

In the case of `Cc1cc2c(nc1N1CCC(Oc3ccccc3)CC1)COC2=O` [Example 31, 3-methyl-2-(4-phenoxypiperidin-1-yl)furo[3,4-b]pyridin-5(7H)-one], the EC50 worked out at 17 nM. Turning to `Cc1cc2c(nc1N1CCC(Oc3cccc(C#N)c3)CC1)COC2=O` [Example 32, 3-((1-(3-methyl-5-oxo-5,7-dihydrofuro[3,4-b]pyridin-2-yl)piperidin-4-yl)oxy)benzonitrile], the EC50 was 14 nM.

`COc1ccc(OC2CCN(c3nc4c(cc3C)C(=O)OC4CO)CC2)cn1` (centres unmarked) [Example 33, 7-(Hydroxymethyl)-2-(4-((6-methoxypyridin-3-yl)oxy)piperidin-1-yl)-3-methylfuro[3,4-b]pyridin-5(7H)-one]: the concentration for a half-maximal effect (EC50) was 34 nM. For the compound `COc1ccc(OC2CCN(c3nc4c(cc3C)CNC4)CC2)cn1` [Example 34, 2-(4-((6-Methoxypyridin-3-yl)oxy)piperidin-1-yl)-3-methyl-6,7-dihydro-5H-pyrrolo[3,4-b]pyridine], the EC50 was determined as 349 nM. The figure for `Cc1cc2c(nc1N1CCC(Oc3ccccc3)CC1)CNC2` [Example 35, 3-methyl-2-(4-phenoxypiperidin-1-yl)-6,7-dihydro-5H-pyrrolo[3,4-b]pyridine] is 76 nM; for `COc1ccc(OC2CCN(c3nc4c(cc3C)CN(Cc3ccncc3)C4=O)CC2)cn1` [Example 36, 2-(4-((6-Methoxypyridin-3-yl)oxy)piperidin-1-yl)-3-methyl-6-(pyridin-4-ylmethyl)-5,6-dihydro-7H-pyrrolo[3,4-b]pyridin-7-one] it is 672 nM; for `COc1ccc(OC2CCN(c3nc4c(cc3C)CN(CCO)C4)CC2)cn1` [Example 37, 2-(2-(4-((6-methoxypyridin-3-yl)oxy)piperidin-1-yl)-3-methyl-5,7-dihydro-6H-pyrrolo[3,4-b]pyridin-6-yl)ethan-1-ol] it is 133 nM.

On to `COc1ccc(OC2CCN(c3nc4c(cnn4C)cc3C)CC2)cn1` [Example 38, 6-(4-((6-methoxypyridin-3-yl)oxy)piperidin-1-yl)-1,5-dimethyl-1H-pyrazolo[3,4-b]pyridine], for which the EC50 worked out at 397 nM. The figure for `COc1ccc(OC2CCN(c3nc4c(cc3C)CN(C(=O)CCO)C4)CC2)cn1` [Example 39, 3-Hydroxy-1-(2-(4-((6-methoxypyridin-3-yl)oxy)piperidin-1-yl)-3-methyl-5,7-dihydro-6H-pyrrolo[3,4-b]pyridin-6-yl)propan-1-one] is 77 nM.

On to `COc1ccc(OC2CCN(c3nc4c(cc3C)CN(C(C)=O)C4)CC2)cn1` [Example 40, 1-(2-(4-((6-methoxypyridin-3-yl)oxy)piperidin-1-yl)-3-methyl-5,7-dihydro-6H-pyrrolo[3,4-b]pyridin-6-yl)ethan-1-one], for which the EC50 came to 162 nM.
